pIC50, pKi: −log10 of the molar value. Active and inactive are the calls of the source. No cut-off for these calls is given here.
Assays:
[1] = target: T1, Kallikrein-14 (Homo sapiens, UniProt Q9P0G3); assay: Inhibition of human kallikrein 14 measured after 15 mins at pH 8 by fluorescence assay; conditions: for pIC50: read-out: IC50
T1 sequence (Q9P0G3 whole entry): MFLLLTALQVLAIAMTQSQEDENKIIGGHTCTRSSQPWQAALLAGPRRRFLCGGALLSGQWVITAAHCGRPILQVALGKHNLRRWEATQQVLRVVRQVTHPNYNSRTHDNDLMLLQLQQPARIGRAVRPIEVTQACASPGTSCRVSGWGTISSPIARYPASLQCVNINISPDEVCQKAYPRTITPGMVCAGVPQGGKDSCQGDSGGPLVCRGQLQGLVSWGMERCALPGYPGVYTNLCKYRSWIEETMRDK

[2] = target: T2, Kallikrein-5 (Homo sapiens, UniProt Q9Y337); assay: Inhibition of human kallikrein 5 measured after 15 mins at pH 8 by fluorescence assay; conditions: for pIC50: read-out: IC50
T2 sequence (Q9Y337 whole entry): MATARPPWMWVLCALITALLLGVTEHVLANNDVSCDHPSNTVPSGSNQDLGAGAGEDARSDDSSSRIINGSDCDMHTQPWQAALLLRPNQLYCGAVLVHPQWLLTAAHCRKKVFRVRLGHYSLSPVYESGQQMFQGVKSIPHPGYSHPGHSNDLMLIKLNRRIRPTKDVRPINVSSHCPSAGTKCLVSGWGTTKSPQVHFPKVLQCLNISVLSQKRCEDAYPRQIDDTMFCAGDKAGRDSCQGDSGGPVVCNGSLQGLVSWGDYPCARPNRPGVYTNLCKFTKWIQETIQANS

[3] = target: T3, Suppressor of tumorigenicity 14 protein (Homo sapiens, UniProt Q9Y5Y6); assay: Inhibition of human matriptase measured after 15 mins at pH 8 by fluorescence assay; conditions: for pIC50: read-out: IC50
T3 sequence (Q9Y5Y6 whole entry): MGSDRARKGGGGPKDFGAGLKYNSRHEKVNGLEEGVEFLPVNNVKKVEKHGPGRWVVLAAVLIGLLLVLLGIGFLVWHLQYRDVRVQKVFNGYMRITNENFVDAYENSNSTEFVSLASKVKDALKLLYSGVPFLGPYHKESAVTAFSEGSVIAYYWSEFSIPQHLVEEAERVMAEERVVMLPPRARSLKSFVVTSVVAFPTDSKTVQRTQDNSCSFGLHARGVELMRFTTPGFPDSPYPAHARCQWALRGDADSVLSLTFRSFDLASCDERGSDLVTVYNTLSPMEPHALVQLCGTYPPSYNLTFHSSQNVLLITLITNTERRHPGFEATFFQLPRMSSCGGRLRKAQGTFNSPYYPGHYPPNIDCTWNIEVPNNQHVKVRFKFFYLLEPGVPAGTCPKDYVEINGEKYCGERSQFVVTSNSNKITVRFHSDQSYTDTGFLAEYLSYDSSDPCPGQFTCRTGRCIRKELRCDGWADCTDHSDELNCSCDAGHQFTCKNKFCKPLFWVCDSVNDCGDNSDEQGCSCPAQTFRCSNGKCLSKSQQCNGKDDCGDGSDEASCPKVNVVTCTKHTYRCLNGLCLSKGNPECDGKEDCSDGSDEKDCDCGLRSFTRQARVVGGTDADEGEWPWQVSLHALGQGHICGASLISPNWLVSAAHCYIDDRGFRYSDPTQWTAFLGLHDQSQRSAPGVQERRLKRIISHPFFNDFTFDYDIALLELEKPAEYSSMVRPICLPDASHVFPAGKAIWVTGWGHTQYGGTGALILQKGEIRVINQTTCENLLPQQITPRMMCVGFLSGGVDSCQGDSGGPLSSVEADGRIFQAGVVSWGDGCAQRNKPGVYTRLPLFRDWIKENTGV

[4] = target: T4, Kallikrein-7 (Homo sapiens, UniProt P49862); assay: Inhibition of human kallikrein 7 measured after 15 mins at pH 8 by fluorescence assay; conditions: for pIC50: read-out: IC50
Target sequence in this assay (P49862 whole entry): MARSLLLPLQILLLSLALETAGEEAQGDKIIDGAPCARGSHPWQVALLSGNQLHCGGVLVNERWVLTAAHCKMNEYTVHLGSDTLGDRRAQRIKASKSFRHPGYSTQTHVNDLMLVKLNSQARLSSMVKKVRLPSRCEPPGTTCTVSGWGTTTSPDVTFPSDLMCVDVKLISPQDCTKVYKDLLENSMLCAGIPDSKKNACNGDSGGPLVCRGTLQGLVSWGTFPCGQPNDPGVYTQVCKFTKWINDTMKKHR

[5] = target: T4, Kallikrein-7; assay: Binding affinity to human kallikrein 7 assessed as deacylation of enzyme relative to control
Target sequence in this assay (P49862 30-253 limits assumed): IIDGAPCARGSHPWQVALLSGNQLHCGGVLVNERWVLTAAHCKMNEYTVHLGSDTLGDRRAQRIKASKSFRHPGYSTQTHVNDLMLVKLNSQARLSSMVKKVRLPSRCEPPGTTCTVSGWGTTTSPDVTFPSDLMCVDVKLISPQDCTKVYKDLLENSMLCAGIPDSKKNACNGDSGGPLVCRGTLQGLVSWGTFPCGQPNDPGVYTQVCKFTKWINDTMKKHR

[6] = target: Kallikrein-5 (Homo sapiens) (UniProt Q9Y337); assay: Inhibition of human kallikrein 5 at 0.5 to 8 uM at pH 8 by fluorescence assay; conditions: TDE = time-dependent effect
[7] = target: Kallikrein-5 (Homo sapiens) (UniProt Q9Y337); assay: Binding affinity to human kallikrein 5 assessed as deacylation of enzyme relative to control
[8] = target: T4, Kallikrein-7; assay: Inhibition of human kallikrein 7 at 0.5 to 8 uM at pH 8 by fluorescence assay; conditions: TDE = time-dependent effect
Target sequence in this assay (P49862 30-253 limits assumed): as above

[9] = Cytotoxicity against human keratinocytes at 1 to 10 uM after 48 hrs by neutral red uptake assay; type: cell-based; conditions: keratinocyte
[10] = target: T5, Kallikrein-14 (Homo sapiens) (UniProt Q9P0G3); assay: Binding affinity to human kallikrein 14 assessed as half life of deacylated enzyme
T5 sequence (whole entry): T1 sequence (Q9P0G3 whole entry)

[11] = target: Kallikrein-5 (Homo sapiens) (UniProt Q9Y337); assay: Transient inhibition of human kallikrein 5 assessed as spontaneous reactivation up to 6 hrs
[12] = target: T6, Suppressor of tumorigenicity 14 protein (Homo sapiens) (UniProt Q9Y5Y6); assay: Binding affinity to human matriptase assessed as half life of deacylated enzyme
T6 sequence (whole entry): T3 sequence (Q9Y5Y6 whole entry)

[13] = target: Kallikrein-5 (Homo sapiens) (UniProt Q9Y337); assay: Inhibition of human kallikrein 5 at 296 nM to 1 uM at pH 8 by fluorescence assay; conditions: TDE = time-dependent effect
[14] = target: T4, Kallikrein-7; conditions: 296 nM
Target sequence in this assay (P49862 30-253 limits assumed): as above
Description: Inhibition of human kallikrein 7 at 296 nM to 1 uM at pH 8 by fluorescence assay

[15] = target: T2, Kallikrein-5; assay: Inhibition of human kallikrein 5 measured after 15 mins at pH 8 by double-reciprocal plot analysis
[16] = target: T4, Kallikrein-7; assay: Binding affinity to human kallikrein 7 assessed as half life of deacylated enzyme
Target sequence in this assay (P49862 30-253 limits assumed): as above

Row | SMILES | pIC50 [2] | pIC50 [4] | pIC50 [1] | fold change (FC) [5] | pIC50 [3] | Activity [9] | T1/2 [10] | also measured
1 | Nc1nc(-c2cccnc2)nn1C(=O)c1ccc(Cl)cc1Cl | < 4.52 | 5.46 |  |  |  |  |  | IC50 [1]: Not Active; IC50 [3]: Not Active
2 | COc1ccc(C(=O)n2nc(-c3ccccc3)nc2N)cc1OC | 5.89 | 6.64 | < 4.52 | 0.2 | < 4.52 |  |  | inhibition [6]: tde; fold change (FC) [7]: 4; inhibition [8]: tde
3 | Cc1ccc(C(=O)n2nc(-c3cccnc3)nc2N)cc1 | 6.57 | 7.40 | 5.89 |  | 6.24 | Non-toxic | 5 min | inhibition [11]: Active; T1/2 [12]: 5 min; inhibition [13]: tde; inhibition [14]: tde; pKi [15]: 5.36
4 | COc1ccc(C(=O)n2cnnc2N)cc1 | 6.00 | 6.21 | 5.46 |  | < 4.52 | Non-toxic | 5 min | 
5 | C/C(=C\c1ccccc1)C(=O)n1nnc2ccccc21 |  |  |  |  |  |  |  | IC50 [1]: Not Active; IC50 [2]: Not Active; IC50 [3]: Not Active; IC50 [4]: Not Active
6 | CSc1nc(-c2ccc(Cl)cc2)nn1C(=O)c1ccccc1 | 6.85 | 6.18 | 6.01 | 0.2 | 6.38 | Non-toxic | 5 min | T1/2 [12]: 5 min; T1/2 [16]: 39 min
7 | Nc1nc(-c2cccnc2)nn1C(=O)c1ccc(Cl)cc1 | 5.94 | 6.66 | < 4.52 | 2 | < 4.52 |  |  | fold change (FC) [7]: 8
